Laboratory results published in patent US20230382904A1, “SUBSTITUTED 4-([1,2,4]TRIAZOLO[1,5-a]PYRIDIN-6-YL)THIOPHENE-2-CARBOXAMIDE DERIVATIVES AND USE THEREOF” (The Johns Hopkins University, priority 2020, published 2023).

Assays:
LZK = LZK (Homo sapiens (Human), UniProt O43283); assay: LZK biochemical assay (TR-FRET, MKK7 phosphorylation)
Outline: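 Readout is the HTRF ratio (XL665/Eu) from an EDTA-containing detection mix of 0.4 nM Eu-anti-phospho-MKK7 (T275/S277) and 20 nM XL665-anti-His, incubated 16 h at 32° C. This followed a 90 min RT reaction of 10 nM LZK catalytic domain, 15 nM MKK7 and 15 μM ATP at pH 7.5.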

DLK = DLK (Homo sapiens (Human), UniProt Q12852); assay: DLK biochemical assay (TR-FRET, MKK7 phosphorylation)
Chain of DLK (Q12852 1-520): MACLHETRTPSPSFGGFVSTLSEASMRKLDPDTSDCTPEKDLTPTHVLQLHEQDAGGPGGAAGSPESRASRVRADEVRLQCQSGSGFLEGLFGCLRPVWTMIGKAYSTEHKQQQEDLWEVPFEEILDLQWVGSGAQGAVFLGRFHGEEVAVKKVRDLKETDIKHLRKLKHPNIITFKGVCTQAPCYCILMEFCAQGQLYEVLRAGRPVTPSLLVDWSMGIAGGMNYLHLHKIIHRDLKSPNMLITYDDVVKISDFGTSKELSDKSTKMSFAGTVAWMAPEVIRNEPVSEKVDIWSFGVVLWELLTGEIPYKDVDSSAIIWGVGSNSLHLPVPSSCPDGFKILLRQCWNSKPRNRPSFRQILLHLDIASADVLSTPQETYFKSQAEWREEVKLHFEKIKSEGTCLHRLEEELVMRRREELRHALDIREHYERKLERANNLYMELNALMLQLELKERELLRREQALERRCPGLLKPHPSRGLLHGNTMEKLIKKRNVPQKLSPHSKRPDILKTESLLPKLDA
Outline: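 TR-FRET ratio (665/Eu) reports MKK7 T275/S277 phosphorylation, lowered by DLK inhibition. Reaction: 60 μM ATP, 15 nM MKK7, 10 nM DLK catalytic domain, 90 min room temperature; detection incubation 16 h, 37° C. (1536-well) or 4° C. (384-well). Final concentrations.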

Chain of LZK (O43283 168-409): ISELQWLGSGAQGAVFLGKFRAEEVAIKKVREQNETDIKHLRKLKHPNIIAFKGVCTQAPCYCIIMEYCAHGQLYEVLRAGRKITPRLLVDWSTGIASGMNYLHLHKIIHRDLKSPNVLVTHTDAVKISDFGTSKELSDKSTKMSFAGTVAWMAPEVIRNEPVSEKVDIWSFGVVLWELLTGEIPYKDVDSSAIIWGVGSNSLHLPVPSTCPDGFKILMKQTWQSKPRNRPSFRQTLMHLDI

| Compound | IC50 (LZK) [µM] | IC50 (DLK) [µM] |
| --- | --- | --- |
| Cc1ccc([C@H](C)NC(=O)c2cc(-c3cc(C(=O)N[C@H]4CCOC4)c4nc(N)nn4c3)cs2)cc1 [Compound 106] | 0.16 | 0.011 |
| CC[C@H](NC(=O)c1cc(-c2cc(C(=O)NC(C)C)c3nc(N)nn3c2)cs1)c1ccc(F)cc1 [Compound 108] | 0.025 | 0.004 |
| Nc1nc2c(C(=O)N[C@H](CO)C(F)(F)F)cc(-c3csc(C(=O)NCc4ccc(F)cc4)c3)cn2n1 [Compound 111] | 0.29 | 0.044 |
| Nc1nc2c(C(=O)NC3CNC3)cc(-c3csc(C(=O)NCc4ccc(F)cc4)c3)cn2n1 [Compound 113] | 0.66 | 0.22 |
| C[C@H](NC(=O)c1cc(-c2cc(C(=O)NC3CNC3)c3nc(N)nn3c2)cs1)c1ccc(F)cc1 [Compound 114] | 0.71 | 0.047 |
| CC(C)NC(=O)c1cc(-c2csc(C(=O)NC3CCCc4cc(F)ccc43)c2)cn2nc(N)nc12 (stereo not shown) [Compound 119] | 0.505 | 0.024 |
| CC(C)NC(=O)c1cc(-c2csc(C(=O)NC3CC(C)(C)Oc4ccccc43)c2)cn2nc(N)nc12 (stereo not shown) [Compound 121] | 0.52 | 0.017 |
| CC(C)NC(=O)c1cc(-c2csc(C(=O)NC3(c4ccc(F)cc4)CCCC3)c2)cn2nc(N)nc12 [Compound 123] | 0.083 | 0.0029 |
| COc1ccc(C(C)(C)NC(=O)c2cc(-c3cc(C(=O)NC(C)C)c4nc(N)nn4c3)cs2)cc1 [Compound 124] | 0.33 | 0.017 |
| CC(C)NC(=O)c1cc(-c2csc(C(=O)NC3COC3)c2)cn2nc(N)nc12 [Compound 129] | 0.8 | 0.29 |
| COC[C@H](NC(=O)c1cc(-c2cc(C(=O)NC(C)C)c3nc(N)nn3c2)cs1)c1ccc(F)cc1 [Compound 130] | 0.12 | 0.014 |
| CC(C)NC(=O)c1cc(-c2csc(C(=O)NC3CC(C)(C)Oc4ccccc43)c2)cn2nc(N)nc12 (stereo not shown) [Compound 131] | 1.5 | 0.063 |
| CC[C@H](C)NC(=O)c1cc(-c2csc(C(=O)N[C@H](CC)c3ccc(F)cc3)c2)cn2nc(N)nc12 [Compound 133] | 0.24 | 0.01 |
| CC[C@@H](NC(=O)c1cc(-c2cc(C(=O)N[C@H]3CCOC3)c3nc(N)nn3c2)cs1)c1ccc(F)cc1 [Compound 135] | 0.25 | 0.0074 |
| CC[C@@H](C)NC(=O)c1cc(-c2csc(C(=O)N[C@H](CC)c3ccc(F)cc3)c2)cn2nc(N)nc12 [Compound 136] | 5.6 | 0.063 |
| CC[C@H](NC(=O)c1cc(-c2cc(C(=O)NC3(CO)CC3)c3nc(N)nn3c2)cs1)c1ccc(F)cc1 [Compound 140] | 0.79 | 0.072 |
| CC[C@H](NC(=O)c1cc(-c2cc(C(=O)NC(C)(C)C)c3nc(N)nn3c2)cs1)c1ccc(F)cc1 [Compound 142] | 0.4 | 0.12 |
| CC[C@H](C)NC(=O)c1cc(-c2csc(C(=O)NC3(c4ccc(F)cc4)CCCC3)c2)cn2nc(N)nc12 [Compound 143] | 0.11 | 0.0089 |
| CC[C@H](NC(=O)c1cc(-c2cc(C(=O)NC(C)CF)c3nc(N)nn3c2)cs1)c1ccc(F)cc1 (stereo partly shown) [Compound 144-1] | 0.042 | 0.0046 |
| CC[C@H](NC(=O)c1cc(-c2csc(C(=O)NCc3ccc(F)cc3)c2)cn2nc(N)nc12)C(F)(F)F [Compound 144-4] | 2.5 | 0.8 |
| CC[C@@H](C)NC(=O)c1cc(-c2csc(C(=O)N[C@@H](CC)c3ccc(F)cc3)c2)cn2nc(N)nc12 [Compound 144] | 0.77 | 0.038 |
| CC(C)NC(=O)c1cc(-c2csc(C(=O)NCc3ccc(F)cc3)c2)cc2nc(N)nn12 [Compound 145] | 0.124 | 0.0305 |
| COc1cccc(CNC(=O)c2cc(-c3cc(C(=O)NC(C)C)n4nc(N)nc4c3)cs2)c1 [Compound 148] | 0.23 | 0.064 |
| CC(C)NC(=O)c1cc(-c2csc(C(=O)NCc3ccccc3)c2)cc2nc(N)nn12 [Compound 149] | 0.11 | 0.028 |
| CC[C@H](NC(=O)c1cc(-c2cc(C(=O)NC(C)C)n3nc(N)nc3c2)cs1)c1ccc(F)cc1 [Compound 154] | 0.089 | 0.0049 |
| CC[C@H](C)NC(=O)c1cc(-c2csc(C(=O)N[C@@H](COC)c3ccc(F)cc3)c2)cc2nc(N)nn12 [Compound 159] | 0.016 | 0.0029 |

Further compounds by falling IC50 (LZK), results first:

| IC50 (LZK) [µM] | IC50 (DLK) [µM] | Compound |
| --- | --- | --- |
| 8.3 | 0.93 | CC[C@@H](NC(=O)c1cc(-c2csc(C(=O)N[C@@H](C)c3ccc(F)cc3)c2)cn2nc(N)nc12)C(F)(F)F [Compound 127] |
| 5.2 | 0.21 | CC(C)NC(=O)c1cc(-c2csc(C(=O)N[C@@H](C)c3ccc(OC(F)(F)F)cc3)c2)cn2nc(N)nc12 [Compound 118] |
| 3.4 | 0.98 | CC[C@@H](NC(=O)c1cc(-c2csc(C(=O)NCc3ccc(F)cc3)c2)cn2nc(N)nc12)C(F)(F)F [Compound 126] |
| 2.6 | 0.63 | CC[C@H](NC(=O)c1cc(-c2csc(C(=O)N[C@@H](C)c3ccc(F)cc3)c2)cn2nc(N)nc12)C(F)(F)F [Compound 144-5] |
| 0.87 | 0.18 | CCNC(=O)c1cc(-c2csc(C(=O)NCc3ccc(F)cc3)c2)cc2nc(N)nn12 [Compound 157] |
| 0.73 | 0.028 | CC(C)NC(=O)c1cc(-c2csc(C(=O)NC3CC(C)(C)Oc4ccccc43)c2)cn2nc(N)nc12 (stereo not shown) [Compound 132] |
| 0.68 | 0.036 | CC[C@@H](NC(=O)c1cc(-c2cc(C(=O)NC(C)C)c3nc(N)nn3c2)cs1)c1ccc(F)cc1 [Compound 134] |
| 0.62 | 0.11 | CC(C)NC(=O)c1cc(-c2csc(C(=O)NCC3CC3)c2)cn2nc(N)nc12 [Compound 128] |
| 0.56 | 0.033 | CCNC(=O)c1cc(-c2csc(C(=O)N[C@@H](C)c3ccc(F)cc3)c2)cc2nc(N)nn12 [Compound 158] |
| 0.49 | 0.046 | CC(C)NC(=O)c1cc(-c2csc(C(=O)NC3CCCCC3)c2)cc2nc(N)nn12 [Compound 150] |
| 0.47 | 0.082 | C[C@@H](CO)NC(=O)c1cc(-c2csc(C(=O)N(C)[C@@H](C)c3ccc(F)cc3)c2)cn2nc(N)nc12 [Compound 110] |
| 0.36 | 0.006 | CC(C)NC(=O)c1cc(-c2csc(C(=O)N[C@H]3CCCc4ccccc43)c2)cn2nc(N)nc12 [Compound 122] |
| 0.3 | 0.0097 | CC[C@H](NC(=O)c1cc(-c2cc(C(=O)NC3CCC3)c3nc(N)nn3c2)cs1)c1ccc(F)cc1 [Compound 137] |
| 0.28 | 0.032 | CC(C)NC(=O)c1cc(-c2csc(C(=O)N[C@H](C)c3ccc(F)cc3)c2)cc2nc(N)nn12 [Compound 153] |
| 0.24 | 0.021 | CC(C)NC(=O)c1cc(-c2csc(C(=O)NC(COC(F)(F)F)c3ccccc3)c2)cn2nc(N)nc12 (stereo not shown) [Compound 117] |
| 0.22 | 0.018 | COc1cccc(C(C)(C)NC(=O)c2cc(-c3cc(C(=O)NC(C)C)c4nc(N)nn4c3)cs2)c1 [Compound 125] |
| 0.12 | 0.0075 | C[C@H](NC(=O)c1cc(-c2cc(C(=O)N[C@H](CO)C(F)(F)F)c3nc(N)nn3c2)cs1)c1ccc(F)cc1 [Compound 109] |
| 0.12 | 0.0055 | COC[C@H](NC(=O)c1cc(-c2cc(C(=O)N[C@H]3CCOC3)c3nc(N)nn3c2)cs1)c1ccc(F)cc1 [Compound 139] |
| 0.11 | 0.0069 | CC(C)NC(=O)c1cc(-c2csc(C(=O)N[C@H]3CCOc4ccccc43)c2)cn2nc(N)nc12 [Compound 120] |
| 0.1 | 0.021 | CC(C)NC(=O)c1cc(-c2csc(C(=O)N[C@@H](C)c3ccc(F)cc3)c2)cc2nc(N)nn12 [Compound 147] |
| 0.1 | 0.036 | CC(C)NC(=O)c1cc(-c2csc(C(=O)NCc3nc4ccccc4o3)c2)cc2nc(N)nn12 [Compound 151] |
| 0.079 | 0.0075 | CC[C@H](NC(=O)c1cc(-c2cc(C(=O)N[C@@H](C)CC)n3nc(N)nc3c2)cs1)c1ccc(F)cc1 [Compound 156] |
| 0.071 | 0.012 | CC(C)NC(=O)c1cc(-c2csc(C(=O)N[C@@H](C)c3ccccc3)c2)cc2nc(N)nn12 [Compound 146] |
| 0.063 | 0.01 | CC[C@H](NC(=O)c1cc(-c2cc(C(=O)NC(C)CF)c3nc(N)nn3c2)cs1)c1ccc(F)cc1 (stereo partly shown) [Compound 141] |
| 0.057 | 0.00415 | CC[C@H](NC(=O)c1cc(-c2cc(C(=O)NC(C)C)n3nc(N)nc3c2)cs1)c1ccccc1 [Compound 152] |
| 0.046 | 0.0055 | COC[C@H](NC(=O)c1cc(-c2cc(C(=O)N[C@H]3CCOC3)c3nc(N)nn3c2)cs1)c1ccccc1 [Compound 107] |
| 0.043 | 0.0072 | CC[C@H](C)NC(=O)c1cc(-c2csc(C(=O)N[C@H]3CCOc4ccccc43)c2)cn2nc(N)nc12 [Compound 144-3] |
| 0.041 | 0.0013 | CC[C@H](NC(=O)c1cc(-c2cc(C(=O)N[C@H]3CCOC3)c3nc(N)nn3c2)cs1)c1ccc(F)cc1 [Compound 115] |
| 0.031 | 0.0042 | CC[C@H](C)NC(=O)c1cc(-c2csc(C(=O)N[C@@H](COC)c3ccc(F)cc3)c2)cn2nc(N)nc12 [Compound 138] |
| 0.014 | 0.0022 | CC[C@H](C)NC(=O)c1cc(-c2csc(C(=O)N[C@@H](COC)c3ccccc3)c2)cn2nc(N)nc12 [Compound 116] |
